We go through 15 molecules from patent US5698574A, “5-membered heteroaryl-oxazolidinones” (Bayer Aktiengesellschaft, priority 1994, dated 1997).

Common to all, as to assay: minimum inhibitory concentration (MIC), series dilution on Iso-Sensitest agar
Common to all, as to assay type: cell-based

For assay [1], the system named is Staph 48N. The note with it: 37° C., about 20 hours, about 10^4 colony-forming particles per point. The procedure: (§1) The minimum inhibitory concentrations (MIC) were determined by the series dilution method on Iso-Sensitest agar (Oxoid). A series of agar plates which contained concentration of the active compound which decreased by two-fold dilution in each case was prepared for each test substance. The agar plates were inoculated with a Multipoint inoculator (Denley). Overnight cultures of the pathogens which had been diluted beforehand such that each inoculation point contained about 10^4 colony-forming particles were used for the inoculation. The inoculated agar plates were incubated at 37° C. and the germ growth was read off alter about 20 hours. The MIC value (μg/ml) indicates the lowest concentration of active compound at which no growth was detectable with the naked eye.

Assay [2] has as its system Staph 133. To be noted: 37° C., about 20 hours, about 10^4 colony-forming particles per point. The procedure: as §1
Assay [3] relates to Staph 9TV. To be noted: 37° C., about 20 hours, about 10^4 colony-forming particles per point. The procedure: as §1
In assay [4] the test system is E. coli Neumann. To be noted: Escherichia coli, 37° C., about 20 hours, about 10^4 colony-forming particles per point. As to the method:
as §1

Assay [5] concerns Psdm. Bonn. The note with it: 37° C., about 20 hours, about 10^4 colony-forming particles per point. The procedure: as §1
Assay [6] concerns Staph 25701. To be noted: 37° C., about 20 hours, about 10^4 colony-forming particles per point. The procedure: as §1
Assay [7] has as its system Klebs. 57 USA. To be noted: 37° C., about 20 hours, about 10^4 colony-forming particles per point. The procedure: as §1

Converted amounts (≈) assume the structure as drawn. Bounds are passed on as bounds.

For `CC(=O)NC[C@H]1CN(c2ccc(-c3cccc(N)c3)s2)C(=O)O1` [Example 56], the MIC was 4 µg/mL (≈ 12.1 µM) in assay [1]; 8 µg/mL (≈ 24.1 µM) in assay [2]; 4 µg/mL (≈ 12.1 µM) in assay [3]; over 32 µg/mL in assay [4]; over 32 µg/mL in assay [5]; 4 µg/mL (≈ 12.1 µM) in assay [6]. In assay [7], this molecule returned an MIC of over 32 µg/mL.

With `CC(=O)NC[C@H]1CN(c2cc(-c3ccc(C=O)cc3)cs2)C(=O)O1` [Example 60], the MIC is 8 µg/mL (≈ 23.2 µM) in assay [1]; 16 µg/mL (≈ 46.5 µM) in assay [2]; 8 µg/mL (≈ 23.2 µM) in assay [3]; over 32 µg/mL in assay [4]; over 32 µg/mL in assay [5]; 8 µg/mL (≈ 23.2 µM) in assay [6]. In addition, the MIC in assay [7] is over 32 µg/mL.

For `CC(=O)NC[C@H]1CN(c2cc(-c3cccc(C=O)c3)cs2)C(=O)O1` [Example 59], the MIC in assay [1] is 2 µg/mL (≈ 5.81 µM); in assay [2], 4 µg/mL (≈ 11.6 µM); in assay [3], 1 µg/mL (≈ 2.9 µM); in assay [4], over 32 µg/mL; in assay [5], over 32 µg/mL; in assay [6] it was 2 µg/mL (≈ 5.81 µM). Also, the MIC in assay [7] was over 32 µg/mL.

Take `CC(=O)NC[C@H]1CN(c2ccc(-c3ccc(C=O)cc3)s2)C(=O)O1` [Example 44]: the MIC is 0.25 µg/mL (≈ 0.726 µM) in assay [1]; 0.25 µg/mL (≈ 0.726 µM) in assay [2]; 0.25 µg/mL (≈ 0.726 µM) in assay [3]; over 32 µg/mL in assay [4]; over 32 µg/mL in assay [5]; 0.25 µg/mL (≈ 0.726 µM) in assay [6]. Besides, the MIC in assay [7] is over 32 µg/mL.

Turning to `CC(=O)NC[C@H]1CN(c2ccc(-c3cccc(CO)c3)s2)C(=O)O1` [Example 102], the MIC was 8 µg/mL (≈ 23.1 µM) in assay [1]; 8 µg/mL (≈ 23.1 µM) in assay [2]; 8 µg/mL (≈ 23.1 µM) in assay [3]; over 32 µg/mL in assay [4]; over 32 µg/mL in assay [5]; 8 µg/mL (≈ 23.1 µM) in assay [6]. The same molecule registered a minimal inhibitory concentration (MIC) in assay [7] of over 32 µg/mL.

For the molecule `CC(=O)NC[C@H]1CN(c2ccc(-c3ccc(CO)cc3)s2)C(=O)O1` [Example 101, (5S)-3-(2-[5-(4-hydroxymethyl)phenyl]thiophenyl)-5-acetylamino-methyl-oxazolidin-2-one], the MIC was 2 µg/mL (≈ 5.77 µM) in assay [1]; 2 µg/mL (≈ 5.77 µM) in assay [2]; 2 µg/mL (≈ 5.77 µM) in assay [3]; over 32 µg/mL in assay [4]; over 32 µg/mL in assay [5]; 2 µg/mL (≈ 5.77 µM) in assay [6]. Further, the MIC in assay [7] was over 32 µg/mL.

For the molecule `CC(=O)NC[C@H]1CN(c2cc(Br)cs2)C(=O)O1` [Example 26], the MIC in assay [1] is 8 µg/mL (≈ 25.1 µM); in assay [2] it was 8 µg/mL (≈ 25.1 µM); in assay [3] it was 8 µg/mL (≈ 25.1 µM); in assay [4] it was over 32 µg/mL; in assay [5] it was over 32 µg/mL; in assay [6] it was 8 µg/mL (≈ 25.1 µM). The MIC in assay [7] was over 32 µg/mL.

In the case of `CC(=O)NC[C@H]1CN(c2ccc(-c3ccc(C(C)=O)cc3)s2)C(=O)O1` [Example 46], the MIC in assay [1] was 2 µg/mL (≈ 5.58 µM); in assay [2] it was 2 µg/mL (≈ 5.58 µM); in assay [3] it was 0.5 µg/mL (≈ 1.4 µM); in assay [4], over 32 µg/mL; in assay [5], over 32 µg/mL; in assay [6] it was 2 µg/mL (≈ 5.58 µM). In assay [7], this molecule returned an MIC of over 32 µg/mL.

With `CC(=O)NC[C@H]1CN(c2ccc(-c3ccc(C)cc3)s2)C(=O)O1` [Example 39, (5S)-3-{2[5-(4-Methylphenyl)]thiophenyl}-5-acetyl-aminomethyl-oxazolidin-2-one], the MIC in assay [1] was 2 µg/mL (≈ 6.05 µM); in assay [2], 2 µg/mL (≈ 6.05 µM); in assay [3], 1 µg/mL (≈ 3.03 µM); in assay [4] it was over 32 µg/mL; in assay [5], over 32 µg/mL; in assay [6], 2 µg/mL (≈ 6.05 µM). In assay [7], the MIC was over 32 µg/mL.

`CC(=O)NC[C@H]1CN(c2ccc(-c3cccc(C=O)c3)s2)C(=O)O1` [Example 43]: the MIC in assay [1] is 1 µg/mL (≈ 2.9 µM); in assay [2], 1 µg/mL (≈ 2.9 µM); in assay [3], 1 µg/mL (≈ 2.9 µM); in assay [4], over 32 µg/mL; in assay [5], over 32 µg/mL; in assay [6], 1 µg/mL (≈ 2.9 µM). Further, in assay [7], the MIC is over 32 µg/mL.

Take `CC(=O)NC[C@H]1CN(c2cc3cc(Br)ccc3s2)C(=O)O1` [Example 22]: the MIC in assay [1] is 2 µg/mL (≈ 5.42 µM); in assay [2], 4 µg/mL (≈ 10.8 µM); in assay [3], 2 µg/mL (≈ 5.42 µM); in assay [4] it was over 32 µg/mL; in assay [5] it was over 32 µg/mL; in assay [6], 1 µg/mL (≈ 2.71 µM). In addition, in assay [7], the MIC was over 32 µg/mL.

For `CC(=O)NC[C@H]1CN(c2ccc(-c3csc(C=O)c3)s2)C(=O)O1` [Example 41], the MIC in assay [1] was 2 µg/mL (≈ 5.71 µM); in assay [2], 2 µg/mL (≈ 5.71 µM); in assay [3] it was 2 µg/mL (≈ 5.71 µM); in assay [4] it was over 32 µg/mL; in assay [5] it was over 32 µg/mL; in assay [6] it was 2 µg/mL (≈ 5.71 µM). For the same molecule, in assay [7], the MIC was over 32 µg/mL.

`CC(=O)NC[C@H]1CN(c2ccc(-c3ccccc3C=O)s2)C(=O)O1` [Example 40, (5S)-3-{2[5-(2-Formylphenyl)]thiophenyl}-5-acetylamino-methyl-oxazolidin-2-one]: the MIC in assay [1] was 4 µg/mL (≈ 11.6 µM); in assay [2], 2 µg/mL (≈ 5.81 µM); in assay [3] it was 1 µg/mL (≈ 2.9 µM); in assay [4], over 32 µg/mL; in assay [5], over 32 µg/mL; in assay [6], 2 µg/mL (≈ 5.81 µM). Besides, the MIC in assay [7] is over 32 µg/mL.

On to `CC(=O)NC[C@H]1CN(c2ccc(-c3ccccc3)s2)C(=O)O1` [Example 42], for which the MIC in assay [1] is 4 µg/mL (≈ 12.6 µM); in assay [2], 2 µg/mL (≈ 6.32 µM); in assay [3], 2 µg/mL (≈ 6.32 µM); in assay [4], over 32 µg/mL; in assay [5], over 32 µg/mL; in assay [6] it was 4 µg/mL (≈ 12.6 µM). The same molecule yielded an MIC in assay [7] of over 32 µg/mL.

On to `CC(=O)NC[C@H]1CN(c2ccc(-c3ccc(F)cc3)s2)C(=O)O1` [Example 51], for which the MIC is 2 µg/mL (≈ 5.98 µM) in assay [1]; 4 µg/mL (≈ 12 µM) in assay [2]; 1 µg/mL (≈ 2.99 µM) in assay [3]; over 32 µg/mL in assay [4]; over 32 µg/mL in assay [5]; 2 µg/mL (≈ 5.98 µM) in assay [6]. In addition, the MIC in assay [7] is over 32 µg/mL.
